According to patent publication US20060173066A1, “Remedy for diabetes” (Kyowa Hakko Kogyo Co., Ltd., priority 2003, published 2006):

Experiments:
Type in all cases: in vivo
[1] = system: KK-Ay/Ta Jcl mice of a type 2 diabetic model; test: Example 1: non-fasting blood-sugar level in mice fed CE-2 feed with 1% by weight of test substance
Text: (§1) KK-Ay/Ta Jcl mice (Clea Japan, Inc.; male; six weeks age) (15 mice) of a type 2 diabetic model were divided into three groups each comprising five mice and named group 1 to group 3.
(§2) The mice of the groups 1 to 3 were made free to take feed and water. A commercially available feed CE-2 (manufactured by Clea Japan, Inc.) was ingested to the mice of group 1. CE-2 to which 1% by weight of trans-4-hydroxy-L-proline (manufactured by Kyowa Hakko Kogyo; hereinafter, abbreviated as hydroxyproline) was added was ingested to the mice of group 2. CE-2 to which 1% by weight of trans-N-acetyl-4-hydroxy-L-proline (manufactured by Kyowa Hakko Kogyo; hereinafter, abbreviated as N-acetylhydroxyproline) was added was ingested to the mice of group 3.
(§3) On the initial day of the test and on the 17th day thereafter, blood was collected from tail vein and blood-sugar level upon non-fasting was measured by a Medisafe Reader GR-101 (manufactured by Thermo Co.). The mice were fasted for 18 hours during the 17th day to the 18th day after the start of the test and whole blood was collected from descending vena cava to prepare serum. The serum-insulin level was measured by a Levi Insulin Kit Mouse-T (manufactured by Shibayagi). The value was shown by mean value±standard error (n=5) and statistic ratio of risk (p value) was determined by a t-test. With regard to the ingested amounts during the test periods, there was no significant difference among the groups 1 to 3.

[2] = system: GK/Jcl rats of a type 2 diabetic model; test: Example 4: blood-sugar level after single oral administration in rats; settings: 1,000 mg/kg B.W. oral
Experimental: GK/Jcl rats (Clea Japan, Inc; male; nine weeks age) (12 mice) of a type 2 diabetic model were divided into two groups each comprising six mice and named group 1 and group 2.
Five ml/kg B.W. of a solvent (0.5% (w/v) methyl cellulose #400) was orally administered to the rats of the group 1. A 200 mg/ml solution of the hydroxyproline in the same solvent was orally administered to the rats of the group 2 so as to make the amount of administration 1,000 mg/kg B.W. Blood was collected from tail vein upon administration of the solvent or the hydroxyproline solution (0 minute) and 30 minutes, 60 minutes and 120 minutes after the administration and blood-sugar levels were measured by a Medisafe Reader GR-101. The value was shown by mean value±standard error (n=6) and statistic ratio of risk (p value) was determined by a t-test.

[3] = system: GK/Jcl rats of a type 2 diabetic model; test: Example 5: blood-sugar level after oral glucose load in fasted rats; settings: for Blood-Sugar Level, 30 min: 30 minutes after glucose 2 g/kg; for Blood-Sugar Level, 30 min / Blood-Sugar Level, −30 min / Blood-Sugar Level, 60 min / Blood-Sugar Level, 120 min / Blood-Sugar Level, 0 min: n=6; for Blood-Sugar Level, −30 min: 30 minutes before glucose 2 g/kg (baseline, at dosing), mean ± standard error; for Blood-Sugar Level, 60 min: 60 minutes after glucose 2 g/kg; for Blood-Sugar Level, 120 min: 120 minutes after glucose 2 g/kg; for Blood-Sugar Level, 0 min: upon glucose administration 2 g/kg
Experimental: GK/Jcl rats (Clea Japan, Inc.; male; nine weeks age) (18 mice) of a type 2 diabetic model were divided into three groups each comprising six mice and named groups 1 to 3.
After fasting for 18 hours, 5 ml/kg B.W. of a solvent (0.5% (w/v) methyl cellulose #400) was orally administered to the rats of the group 1. A 60 mg/ml solution of the hydroxyproline in the same solvent was orally administered to the rats of the group 2 so as to make the amount of administration 300 mg/kg B.W. A 200 mg/ml solution of the hydroxyproline in the same solvent was orally administered to the rats of the group 3 so as to make the amount of administration 1,000 mg/kg B.W. After 30 minutes from the oral administration, 2 g/kg B.W. of a 20% (w/v) aqueous solution of glucose was orally administered to the mice of the groups 1 to 3 to load with sugar. Blood was collected from tail vein 30 minutes before the administration of the aqueous glucose solution (−30 minutes), upon the administration (0 minute) and 30 minutes, 60 minutes and 120 minutes after the administration and blood-sugar levels were measured by a Medisafe Reader GR-101.
The value was shown by mean value±standard error (n=6) and statistic ratio of risk (p value) between the groups 1 and 2 and that between the groups 1 and 3 was determined by a one-way layout dispersion analysis and by a Dunnett test.

[4] = system: KK-Ay/Ta Jcl mice of a type 2 diabetic model; test: Example 1: serum-insulin level after 18 hours fasting in mice fed CE-2 feed with 1% by weight of test substance
Text: as §1, §2, §3

With `O=C(O)[C@@H]1C[C@@H](O)CN1` [hydroxyproline, trans-4-hydroxy-L-proline] the “antidiabetic action (conclusion from Table 1)” value ([1]; 17 days) was “antidiabetic action”, the “Blood-Sugar Level, 17th Day of the Test” value ([1]; non-fasting, tail vein blood, 17th day, mean ± standard error, n=5) was 260.4 ± 10.8 mg/dL and the “Blood-Sugar Level, Initial Day of the Test” value ([1]; non-fasting, tail vein blood, initial day (baseline), mean ± standard error, n=5) was 243.0 ± 12.2 mg/dL. The “antidiabetic action (conclusion from Table 6)” value [2] was “antidiabetic action”, the “Blood-Sugar Level, 30 min” value ([2]; 30 minutes after administration, mean ± standard error, n=6) was 220.3 ± 13.8 mg/dL and the “Blood-Sugar Level, 60 min” value ([2]; 60 minutes after administration, mean ± standard error, n=6) was 189.5 ± 10.9 mg/dL. For the same molecule, the “Blood-Sugar Level, 120 min” value ([2]; 120 minutes after administration, mean ± standard error, n=6) was 156.0 ± 6.8 mg/dL, the “Blood-Sugar Level, 0 min” value ([2]; upon administration (baseline), mean ± standard error, n=6) was 189.2 ± 8.4 mg/dL and the “Blood-Sugar Level, 30 min” value ([3]; 300 mg/kg B.W. oral) was 269.5 ± 15.3 mg/dL. For the same molecule, the “Blood-Sugar Level, −30 min” value ([3]; 300 mg/kg B.W. oral) was 113.3 ± 2.7 mg/dL, the “Blood-Sugar Level, 60 min” value ([3]; 300 mg/kg B.W. oral) was 298.2 ± 7.5 mg/dL and the “Blood-Sugar Level, 120 min” value ([3]; 300 mg/kg B.W. oral) was 207.5 ± 6.3 mg/dL. For the same molecule, the “Blood-Sugar Level, 0 min” value ([3]; 300 mg/kg B.W. oral) was 144.2 ± 7.2 mg/dL, the “Blood-Sugar Level, 30 min” value ([3]; 1,000 mg/kg B.W. oral) was 226.2 ± 3.0 mg/dL and the “Blood-Sugar Level, −30 min” value ([3]; 1,000 mg/kg B.W. oral) was 112.2 ± 3.3 mg/dL. The “Blood-Sugar Level, 60 min” value ([3]; 1,000 mg/kg B.W. oral) was 247.3 ± 4.4 mg/dL, the “Blood-Sugar Level, 120 min” value ([3]; 1,000 mg/kg B.W. oral) was 181.2 ± 7.3 mg/dL and the “Blood-Sugar Level, 0 min” value ([3]; 1,000 mg/kg B.W. oral) was 137.0 ± 6.6 mg/dL. The “antidiabetic action (conclusion from Table 7)” value ([3]; 300 and 1,000 mg/kg B.W. oral, glucose load) was “dose-dependent antidiabetic-action”, the “antidiabetic action by improving insulin resistance (conclusion from Tables 1 and 2)” value [4] was “show an antidiabetic action by improving the insulin resistance” and the “Serum-Insulin Level” value ([4]; 18th day after 18 hours fasting, mean ± standard error, n=5) was 1.01 ± 0.08 ng/mL.
